Entries after “also recorded” stand apart in the source; their conditions may differ.
Tests used:
[1] = tested on: mouse kidney tissue; assay: Two-photon fluorescence microscopy imaging of mouse kidney tissue slices treated with dye; set-up: species or system mouse (Balb/C); settings: 10 μM
Description: The inventors observed fluorescent changes by two-photon microscopy after mouse tissue was treated with Compound 1g of the present invention, and the result is shown in FIG. 3.
Specifically, to observe a two-photon microscopy image of mouse tissue treated with Compound 1g, kidney tissue of a Balb/C type mouse (6 weeks old) was used, and an experiment was carried out under a light-protected condition (dark room). The mouse kidney tissue was dissected and washed with a PBS buffer solution, and then each organ was frozen over dry-ice for 5 minutes. The frozen organs were crushed with a hammer, and then a tissue slice sample was prepared to a thickness of 16 μm using a cutter (Cryostat machine, Leica, CM3000 model). […] The tissue slice sample was put on a specimen block (Paul Marienfeld GMbH & Co.), and the specimen block was immersed in 4% paraformaldehyde for 10 minutes and washed with a PBS buffer solution, and then the tissue was fixed again using a mount solution (Gel Mount, BIOMEDA). The prepared tissue slice sample was immersed in a PBS buffer solution containing Compound 1g and acedan or IminoPOS at a concentration of 10 μM for 10 minutes, washed with a PBS buffer solution three times, and then fixed with 4% paraformaldehyde, followed by observation of fluorescence. […]

[2] = Fluorescence spectra of benzocoumarin-based fluorescent dyes; type: physicochemical; settings: 10 μM dye in HEPES buffer, dioxane, ethanol, acetonitrile, dichloromethane, dimethylsulfoxide or toluene (1% DMSO); compared with Compounds 1c and 1g to 1l (FIG. 2)
Description: (§1) The inventors confirmed absorption characteristics of representative compounds among Compounds 1g to 1k, which are two-photon absorbing near-infrared fluorescent dyes, and Compounds 1a to 1f and 1l to 4g, which are two-photon absorbing fluorescent dyes, of the present invention, and the results are shown in FIG. 2.
Specifically, to confirm the characteristics of fluorescent spectra of two-photon absorbing near-infrared fluorescent dyes, the inventors measured fluorescence spectra (measured using a photon technical international fluorescence system) by charging a quartz cell with a 1-cm path length with 4-(2-hydroxyethyl)-1-piperazineethanesulfonic acid (HEPES) buffer, […], dioxane, ethanol, acetonitrile, dichloromethane, dimethylsulfoxide, a toluene solution (containing 1% DMSO), which contains 10 μM each of Compounds 1a to 4g, and the wavelength of maximum absorbance is shown in FIG. 2.

[3] = UV/Vis absorbance spectra of benzocoumarin-based fluorescent dyes (wavelength of maximum absorbance); type: physicochemical; settings: 10 μM dye in HEPES buffer, PBS buffer, dioxane, ethanol, acetonitrile, dichloromethane, dimethylsulfoxide or toluene (1% DMSO); compared with Compounds 1c and 1g to 1l (FIG. 1)
Description: as §1, with “1.” for “2.”
Specifically, to confirm the characteristics of UV/Vis absorbance spectra of benzocoumarin-based near-infrared fluorescent dyes and derivatives thereof, the inventors measured UV/Vis absorbance spectra (measured using a HP8453 UV/Vis absorbance spectrophotometer) by charging a quartz cell with a 1-cm path length with 4-(2-hydroxyethyl)-1-piperazineethanesulfonic acid (HEPES) buffer, phosphate-buffered saline (PBS) buffer, dioxane, ethanol, acetonitrile, dichloromethane, dimethylsulfoxide, or a toluene solution (containing 1% DMSO), which contains 10 μM each of Compounds 1a to 4g, and the wavelength of maximum absorbance is shown in FIG. 1.

| Structure (SMILES) | quality of two-photon fluorescence image ([1]; depths 25, 125, 175 μm, compared to acedan or IminoPOS (conventional two-photon dyes), FIG. 3c) | signal/noise (S/N) ratio of two-photon tissue image ([1]; two-photon excitation 900 nm, surface layer to middle depth (50 to 150 μm), compared to acedan (800 nm) and IminoPOS (850 nm), FIG. 3b) | wavelengths of maximum absorbance (fluorescence spectra, FIG. 2) [2] | wavelengths of maximum absorbance [3] |
| --- | --- | --- | --- | --- |
| C[n+]1ccc(-c2cc3cc4ccc(N5CCCC5)cc4cc3oc2=O)cc1.[OH-] [Compound 1g, 1-methyl-4-(2-oxo-8-(pyrrolidine-1-yl)-2H-benzo[g]chromene-3-yl)pyridinium trifluoromethanesulfonate] | superior fluorescence image; also recorded: high-definition and high-contrast image | increased |  |  |
| C=CCNc1ccc2cc3cc(-c4ccncc4)c(=O)oc3cc2c1 [Compound 1e, 8-(allylamino)-3-(pyridine-4-yl)-2H-benzo[g]chromene-2-one] |  |  | did not have a significant difference | did not have a significant difference |
| CN(C)c1ccc2cc3cc(-c4ccncc4)c(=O)oc3cc2c1 [Compound 1b, 8-(dimethylamino)-3-(pyridine-4-yl)-2H-benzo[g]chromene-2-one] |  |  | did not have a significant difference | did not have a significant difference |
| O=c1oc2cc3cc(N4CCCC4)ccc3cc2cc1-c1ccncc1 [Compound 1a, 3-(pyridine-4-yl)-8-(pyrrolidine-1-yl)-2H-benzo[g]chromene-2-one] |  |  | did not have a significant difference | did not have a significant difference |
| CNc1ccc2cc3cc(-c4ccncc4)c(=O)oc3cc2c1 [Compound 1d, 8-(methylamino)-3-(pyridine-4-yl)-2H-benzo[g]chromene-2-one] |  |  | did not have a significant difference | did not have a significant difference |
| Nc1ccc2cc3cc(-c4ccncc4)c(=O)oc3cc2c1 [Compound 1f, 8-amino-3-(pyridine-4-yl)-2H-benzo[g]chromene-2-one] |  |  | did not have a significant difference | did not have a significant difference |

Reference: patent US20180371256A1, “BENZOCOUMARIN-BASED TWO-PHOTON ABSORBING FLUORESCENT DYE” (POSTECH ACADEMY-INDUSTRY FOUNDATION, priority 2017, published 2018)
